# Results reported in publication PMC2615442, “Comparative analysis of selected methods for the assessment of antimicrobial and membrane-permeabilizing activity: a case study for lactoferricin derived peptides” (BMC Microbiology, 2008).
# Where a SMILES comes first, the peptide text is derived from it.
# Tests used:
# [1] = test system: Pseudomonas aeruginosa 4158-02; assay: microbe, parasite or virus in culture; conditions: for FIC index of peptide-novobiocin combination: checkerboard, peptides with MIC >250 μg/mL assigned 500 μg/mL, synergistic if ≤ 0.5; for synergistic activity with novobiocin, in words: subinhibitory peptide concentrations
# Protocol: First, we studied the ability of the peptides to sensitize P. aeruginosa to novobiocin, a hydrophobic antibiotic that cannot reach its intracellular target (gyrase) due to its inability to cross an intact outer membrane. […] Specifically, for a combination to be considered synergistic MIC of each agent when combined have to be at least 4-times lower than that of the corresponding agent alone.
# (§1) The ability of the peptides to induce bacterial sensitization to antibiotics was determined by a standard checkerboard titration method in 96-well polystyrene microtiter plates. For this purpose, serial dilutions of the two antimicrobial agents were mixed together in a microtiter plate so that each row contained a fixed amount of peptide and increasing amounts of the antibiotic. Inocula and growth conditions were identical to those described for MIC determination. To assess the synergy between antibiotics and peptides, the Fractional Inhibitory Concentration (FIC) index of each combination was calculated according to the following formula: [(A)/MICA] + [(P)/MICP] = FICA + FICP = FIC index, where MICA and MICP are the MICs of the antibiotic and peptide determined separately, and (A) and (P) are the MICs of the antibiotic and peptide when determined in combination. A given peptide-antibiotic combination was considered as synergistic if its FIC index was ≤ 0.5.
# E. coli ATCC 25922 = assay: MIC/MBC in polypropylene vs. polystyrene microplates; assay type: cell-based, Escherichia coli; conditions: for MIC, polypropylene vs. polystyrene plates: broth microdilution
# Protocol: It has been reported that cationic peptides have affinity for certain plastics (i.e. polystyrene; [20]), and as a consequence some authors disfavor the use of microplates made of such material. To investigate this potential interference, we studied whether the composition of the microplate (polypropylene vs. polystyrene) affected the antibacterial activity of selected peptides differing in length, hydrophobicity and net charge when tested on E. coli ATCC 25922.
# The peptides MICs were determined in Mueller-Hinton (MH) medium (Difco Laboratories, Sparks, MD, USA) by the broth microdilution assay following recommendations of the Clinical and Laboratory Standards Institute. Briefly, serial twofold dilutions of the peptides were made in MH broth and dispensed into 96-well U-bottom polystyrene microtiter plates (TPP, Trasadingen, Switzerland). Bacterial cells grown for 18–20 h on agar plates were suspended in saline and the turbidity was adjusted to an O.D600 of 0.04 (1 × 10^7 CFU/mL, approximately). A hundred-fold dilution of this suspension prepared in MH broth was mixed 1:1 with 100 μL of each of the corresponding peptide dilution. Plates were incubated at 37°C without shaking for 18–20 h and the MIC was determined visually. Minimum bactericidal concentration (MBC) was determined by plating aliquots from those wells with no growth onto MH agar plates. MBC was defined as the lowest concentration of the peptide causing a 99.9% loss of viability with respect to the CFU/mL inoculated.
# The peptides MICs were also determined using polypropylene labware by the conventional broth microdilution assay as described above. For these experiments, polypropylene 96 well round bottom plates (Greiner; Sigma-Aldrich, USA) were used. Both this and all the previous antimicrobial susceptibility assays were performed at least in duplicate.
# [2] = test system: P. aeruginosa strain PAO1; conditions: for final MIC of antibiotic: in the presence of subinhibitory concentrations of peptide P22, strain PAO1
# Protocol: For these experiments we used the wild type P. aeruginosa strain PAO1, whose mechanisms of antibiotic resistance have been extensively studied.
# as §1
# Pseudomonas aeruginosa [3] = assay: NPN uptake permeabilization assay; assay type: cell-based; conditions: peptide 50 μg/mL; NPN 10 μM; 5 mM HEPES pH 7.2 with 0.1% glucose; 37°C
# Protocol: In addition to this indirect method, we used a direct assay which measures the ability of peptides to promote the entry of a hydrophobic fluorescent probe (1-N-phenylnaphthylamine; NPN) into the cell membrane. This method identifies potent permeabilizers as those causing rapid NPN uptake leading to a high level of fluorescence.
# The peptides permeabilizing activity on the bacterial cell envelope was assessed by quantifying the uptake of 1-N-phenylnaphthylamine (NPN). These experiments were performed essentially as described by Loh and collaborators with some modifications. Briefly, bacterial cells were grown in LB broth to mid-logarithmic phase, washed in 5 mM HEPES buffer (N-2-hydroxyethylpiperazine-N'-2-ethanesulfonic acid, pH 7.2) and resuspended at an OD600 of 0.5 in HEPES supplemented with 0.1% glucose. Freshly prepared bacterial suspensions were allowed to stabilize at 37°C for 10 min in quartz cuvettes. NPN was added at a final concentration of 10 μM and fluorescence was measured with a fluorometer (LS-50, Perkin-Elmer, Wellesley, MA, USA) using the time drive recording mode, slit widths of 2.5 nm and excitation and emission wavelengths of 350 nm and 420 nm, respectively. Peptides were added to the cuvette at a final concentration of 50 μg/mL.
# [4] = test system: Bordetella bronchiseptica; assay: Bactericidal activity on resting bacteria in phosphate buffer with or without Ca2+/Mg2+; assay type: cell-based; conditions: 20 mM phosphate pH 7.0 (PB vs PB-CM), 18 hours, viable counts
# Protocol: (§2) All peptides were first screened for bactericidal activity under low ionic strength conditions on resting bacteria. For this purpose, we exposed bacterial cells in phosphate buffer (PB) to increasing concentrations of peptides and performed viable cell counts. Experimental designs similar to this are found in reports dealing with the biological characterization of peptides (see for instance). These experiments were performed on Escherichia coli, Pseudomonas aeruginosa and Bordetella bronchiseptica, three Gram-negative pathogens differing in sensitivity to APs.
# (§3) The buffer used in the previous experiments was devoid of Ca^2+ and Mg^2+, two divalent cations known to contribute to outer membrane stabilization. […] However, the magnitude of the decrease varied markedly depending upon the peptide and strain.
# (§4) The activity of the peptides was determined on non-growing bacteria by incubating bacterial suspensions containing number of CFU/mL identical to those used for the MIC assay (5 × 10^4 per microplate well) in low-ionic strength medium (20 mM phosphate, pH 7.0) with or without 1 mM Ca ^2+ and 1 mM Mg ^2+. After 18 hours, aliquots were plated onto MH agar to determine the presence of viable bacteria, as described above for the standard MBC assay.
# Pseudomonas aeruginosa [5] = assay: as above; assay type: cell-based; conditions: 20 mM phosphate pH 7.0 (PB vs PB-CM), 18 hours, viable counts
# Protocol: as §2, §3, §4
# Escherichia coli = assay: as above; assay type: cell-based; conditions: 20 mM phosphate pH 7.0 (PB vs PB-CM), 18 hours, viable counts
# Protocol: as §2, §3, §4
compound,measurement,setting,value
FWQRNIRKVKKKI-NH2 [P 14],FIC index of peptide-novobiocin combination,[1],best compounds as judged by their FIC indices
same,decrease in novobiocin MIC (MIC ratio without/with peptide),[1]; peptide added at 6.25 μg/mL,4 fold
same,times the synergistic peptide concentration (6.25 μg/mL) is lower than the peptide's own MIC,[1]; peptide at 6.25 μg/mL,at least 40 times
"FWQRNIRKVRRRR-NH2 [P 11, LF11 derived synthetic peptide, amidated C-terminus]","MBC, polypropylene vs. polystyrene plates",E. coli ATCC 25922,lower in polystyrene
same,"MIC, polypropylene vs. polystyrene plates",E. coli ATCC 25922,same MIC in both materials
CCn1cc(C(=O)O)c(=O)c2ccc(C)nc21 [nalidixic acid],final MIC of antibiotic,[2],2 µg/mL
"FWQRNIRKVKKKK-NH2 [P 13, LF11 derived synthetic peptide, amidated C-terminus]","MBC, polypropylene vs. polystyrene plates",E. coli ATCC 25922,not significantly affected by the type of material used
same,"MIC, polypropylene vs. polystyrene plates",E. coli ATCC 25922,MIC improved in polypropylene plates
CC1(C)S[C@@H]2[C@H](NC(=O)[C@H](N)c3ccccc3)C(=O)N2[C@H]1C(=O)O [ampicillin],final MIC of antibiotic,[2],5 µg/mL
CC[C@H](C)[C@H](NC(=O)[C@H](CC(N)=O)NC(=O)[C@H](CCCNC(=N)N)NC(=O)[C@H](CCC(N)=O)NC(=O)[C@H](Cc1c[nH]c2ccccc12)NC(=O)[C@H](Cc1ccccc1)NC(=O)[C@@H](N)CCCNC(=N)N)C(=O)N[C@@H](CCCNC(=N)N)C(=O)N[C@@H](CCCCN)C(=O)N[C@@H](Cc1ccc(O)cc1)C(=O)N[C@@H](CCCNC(=N)N)C(=O)N[C@@H](CCCNC(=N)N)C(N)=O [P 22] (H-RFWQRNIRKYRR-NH2),FIC of P22-antibiotic combinations,[2]; PAO1,< 0.5
same,peptide MIC,[2]; PAO1,31.25 µg/mL
CFWQRNIRKVRC-NH2 [P 28],NPN uptake (fluorescence rise),Pseudomonas aeruginosa [3],slowest and less prominent NPN-uptakes
same,classification by the novobiocin-sensitization technique,[1],poor permeabilizers
CC[C@H]1OC(=O)[C@H](C)[C@@H](O[C@H]2C[C@@](C)(OC)[C@@H](O)[C@H](C)O2)[C@H](C)[C@@H](O[C@@H]2O[C@H](C)C[C@H](N(C)C)[C@H]2O)[C@](C)(O)C[C@@H](C)C(=O)[C@H](C)[C@@H](O)[C@]1(C)O [erythromycin],final MIC of antibiotic,[2],1 µg/mL
CO[C@H]1/C=C/O[C@@]2(C)Oc3c(C)c(O)c4c(O)c(c(/C=N/N5CCN(C)CC5)c(O)c4c3C2=O)NC(=O)/C(C)=C\C=C\[C@H](C)[C@H](O)[C@@H](C)[C@@H](O)[C@@H](C)[C@H](OC(C)=O)[C@@H]1C [rifampicin],final MIC of antibiotic,[2],0.07 µg/mL
FWLRNIRKVR-NH2 [P 48],FIC index of peptide-novobiocin combination,[1],low FIC indices
FWRNIRKVR-NH2 [P 3],NPN uptake (fluorescence rise),Pseudomonas aeruginosa [3],slowest and less prominent NPN-uptakes
same,classification by the novobiocin-sensitization technique,[1],poor permeabilizers
FWQRNIRKVKKK-NH2 [P 10],FIC index of peptide-novobiocin combination,[1],best compounds as judged by their FIC indices
same,"synergistic activity with novobiocin, in words",[1],synergistic activity at low concentrations
FWQRRIRKVRR-NH2 [P 15],FIC index of peptide-novobiocin combination,[1],low FIC indices
same,"synergistic activity with novobiocin, in words",[1],synergistic activity at low concentrations
FWQRNIYKVR-NH2 [P 41],NPN uptake (fluorescence rise),Pseudomonas aeruginosa [3],slowest and less prominent NPN-uptakes
same,classification by the novobiocin-sensitization technique,[1],poor permeabilizers
Polymyxin B [PMB],"MIC, polypropylene vs. polystyrene plates",E. coli ATCC 25922,higher activity (lower MIC value) when assayed in polypropylene
same,effect of 1 mM Ca2+ and 1 mM Mg2+ on bactericidal activity,[4],not significantly affected by the divalent cations
same,effect of 1 mM Ca2+ and 1 mM Mg2+ on bactericidal activity,Pseudomonas aeruginosa [5],not significantly affected by the divalent cations
same,effect of 1 mM Ca2+ and 1 mM Mg2+ on bactericidal activity,Escherichia coli,not significantly affected by the divalent cations
"CO[C@@H]1[C@@H](OC(N)=O)[C@@H](O)[C@H](Oc2ccc3c(O)c(NC(=O)c4ccc(O)c(CC=C(C)C)c4)c(=O)oc3c2C)OC1(C)C [novobiocin, reference compound]",final MIC of antibiotic,[2],5 µg/mL
same,MIC,"[1]; Pseudomonas aeruginosa, 415802, read-out: novobiocin MIC in the absence of peptides",≥ 512 µg/mL
FWQRNISKVR-NH2 [P 54],NPN uptake (fluorescence rise),Pseudomonas aeruginosa [3],slowest and less prominent NPN-uptakes
same,classification by the novobiocin-sensitization technique,[1],poor permeabilizers
CC1(C)S[C@@H]2[C@H](NC(=O)[C@H](N)c3ccc(O)cc3)C(=O)N2[C@H]1C(=O)O [amoxicillin],final MIC of antibiotic,[2],2 µg/mL
"FWARNIRKVR-NH2 [P 46, LF11 derived synthetic peptide, amidated C-terminus]","MBC, polypropylene vs. polystyrene plates",E. coli ATCC 25922,improved its MBC when using polypropylene instead of polystyrene
